Test system: Orobanche ramosa L.
Experiment: Germination inducer activity in Orobanche ramosa L. (germination rate of seeds)
Type: in vivo
Protocol: In this Example, the germination inducer activity of Compound 1 on Orobanche ramosa L. was analyzed by measuring the germination rate. Orobanche ramosa L. is a parasitic plant of tomato, which is now classified as Phelipanche ramosa (L.) Pomel. The Orobanche ramosa L. used herein is a species that parasitizes tomatoes native to Portugal. Dried seeds of Orobanche ramosa L. were conditioned for one week in water from 20° C. to 26° C. in a dark and humid place. The compounds to be tested were each added in an amount of 2 mL to a Petri dish so as to give a final concentration of 1 μM or 100 nM (Compound 1), or 0.34 μM (GR24). After incubation from 20° C. to 26° C. in a dark and humid place for 1 week after the addition of the treatment solution, the germination rate was evaluated by counting the number of germinated seeds under a stereomicroscope.
In the table, “Germination” indicates the germination inducer activity of Compound 1. When the relative value of the germination rate was 4% or more, Compound 1 was marked with (+).

COC(=O)[C@H](CCCCNC(=O)OC1C=C(C)C(=O)O1)NC(=O)OC(C)(C)C (some centres unmarked) [Compound 1]
germination inducer activity for Orobanche ramosa L. (1 μM or 100 nM): exhibited germination inducer activity
Germination (Compound 1 at 1 μM or 100 nM, 20° C. to 26° C., dark, 1 week): + (When the relative value of the germination rate was 4% or more, Compound 1 was marked with (+))

Source: patent publication US20250031699A1, “Method for Controlling Parasitic Plants” (AJINOMOTO CO., INC., priority 2022, published 2025)
